Measured values published in patent US6620583B2, “Diagnostic screens for type 1 diabetes (IDDM)” (Boston Medical Center Corporation, priority 1998, dated 2003).

Experiments:
Format in all cases: cell-based, human
[1] = system: dermal fibroblasts from type I diabetic patients and matched controls; assay: Bradykinin-induced Ca2+ mobilization in fura-2 AM loaded fibroblasts (fluorescence spectrophotometry)
Method: The following examples describe novel findings upon which the present invention is based, at least in part. In particular, the present inventors have determined the effects of tumor necrosis factor alpha (TNF-α) treatment, and the diabetic environment (elevated glucose and fatty acid), on bradykinin-induced Ca^2+ mobilization in dermal fibroblasts from type I diabetic patients and matched controls. Fibroblasts were exposed to TNF-α (10 ng/ml) for up to 48 hours. Cells in suspension were then loaded with fura-2 acetoxymethyl ester, and bradykinin-induced Ca^2+ mobilization was measured using fluorescence spectrophotometry. […] With 24 hours of treatment, TNF-α-induced increments in peak bradykinin response were three-fold greater in diabetics than in controls (P<0.001).
Briefly, fibroblasts from 7 control and 10 diabetic donors (passages 7 to 30) were loaded with fura-2 AM and Ca^2+ mobilization in response to increasing concentrations of bradykinin was determined.
Briefly, paired flasks of cells were treated with TNF-α or left untreated. Fura-loaded cells were stimulated with 20 nM bradykinin and Ca^2+ mobilization was measured after 200 seconds. […] Fibroblasts were fura-2 AM loaded and Ca^2+ mobilization in response to increasing concentrations of bradykinin was determined. Each bar represents the mean of 14 to 33 separate determinations. In cells from both control and diabetic donors, TNF-α treatment augmented bradykinin induced Ca^2+ mobilization, although to a much greater extent in the diabetic donor. […] A small increase in the final equilibrium level of Ca^2+ was also seen consistently in the diabetic fibroblasts, but not in the controls.
The difference between control and diabetic cells can be seen more clearly through the bradykinin-induced increment between untreated and TNF-α treated. […] The change in peak response to bradykinin after TNF-α treatment was measures in fibroblasts from 7 control and 10 diabetic donors (3-8 separate experiments per donor). Each bar on the graph represents the mean of 14 to 34 separate determinations. […] ANOVA indicated an overall difference between control and diabetic (p<0.001), and specific differences between control and diabetic (Tukey p<0.001) at every bradykinin concentration above 1 nM.
Following the initial bradykinin induced peak of Ca^2+ mobilized from the ER, a sustained elevation of Ca^2+ occurs lasting for minutes. This sustained elevation in steady state Ca^2+ requires Ca^2+ entry from the extracellular space. Inappropriate elevation of Ca^2+ may lead to cell injury, apoptosis and death by activation of phospholipases, nucleases, and proteases (Cheung et al. (1986) N. Engl. J. Med. 314:1670-1676): thus, inappropriately elevated Ca^2+ in diabetic cells could be an important mechanisms for initiating diabetic pathology. Because of the important signal transducing properties of the sustained phase of the Ca^2+ response, the effects of TNF-α treatment on the steady state were examined. Briefly, fibroblasts from 7 control and 10 diabetic donors were exposed to 10 ng/ml TNF-α for 24 hours prior to bradykinin stimulation. The magnitude of the final steady state, or resting, intracellular [Ca^2+] following stimulation with bradykinin was determined. Each bar represents the mean of 14 to 34 separate determinations.
To determine whether the TNF-α induced increase in the peak bradykinin response was due to mobilization of Ca^2+ from intracellular stores, the Ca^2+ chelator EGTA was added prior to stimulation with bradykinin. FIG. 9 illustrates an experiment in which fibroblasts were treated with TNF-α for 24 hours or left untreated and the peak bradykinin response measured in the presence or absence of 2 mM EGTA. In these traces, 2 mM EGTA was added 10 seconds prior to stimulation with 200 nM bradykinin. The peak response was unaltered by EGTA in untreated and TNF-α treated cells. […]

[2] = system: fibroblasts from control and IDDM donors; assay: Thapsigargin-mediated emptying of intracellular Ca2+ stores in fura-loaded fibroblasts
Method: Thapsigargin, an irreversible inhibitor of the intracellular Ca^2+-ATPase, was used to determine if the TNF-α induced increment in peak bradykinin response was mediated by changes in the bradykinin signal transduction cascade, or was at the level of the intracellular Ca^2+ stores by irreversibly inhibiting their refilling FIG. 10 illustrates representative traces in which thapsigargin was added to untreated and TNF-α treated cells from control and IDDM donors. […] Potential mechanisms include alterations in modulation of Ca^2+-ATPase activity, changes in the ATPase itself or alterations in intraluminal signaling.

calreticulin = assay: Western blot of calreticulin expression in fibroblasts; conditions: 24 hr of TNF-α treatment
Description: Although TNF-α is known to turn on a multitude of genes in many different cell types, including the fibroblast (Tessier et al. (1993) Arthritis & Rheumatism 36:1528-1539; Rathanaswami et al. (1993) Arthritis & Rheumatism 36:1295-1304; Butler et al. (1994) Eur. Cytokine Network 5:441-448), it is possible that new protein synthesis is required to replete a component of the signal transduction apparatus that is constantly being turned over.

O=C(O)CN(CCOCCOCCN(CC(=O)O)CC(=O)O)CC(=O)O [EGTA, reference compound]
effect on final [Ca2+]i after bradykinin ([1]; 2 mM EGTA added 10 seconds prior to 200 nM bradykinin): eliminate the increase in final [Ca^2+]I | effect on peak bradykinin response ([1]; 2 mM EGTA added 10 seconds prior to 200 nM bradykinin, untreated and TNF-α treated cells): unaltered

C[C@@H]1C[C@@H]([C@H](O)CC2CC(=O)NC(=O)C2)C(=O)[C@@H](C)C1 [cycloheximide, reference compound]
effect on TNF-α induced increment in bradykinin response ([1]; protein synthesis inhibitor given with TNF-α): blocked the TNF-α induced increment

CCCCCCCC/C=C\CCCCCCCC(=O)O [oleate, oleic acid]
effect on peak bradykinin response (% of 5.6 mM glucose) ([1]; 2 mM oleate with 11 mM glucose, 3 control and 4 diabetic donors, ANOVA p<0.001): significant effects | effect on steady state [Ca2+]i following bradykinin stimulation ([1]; 2 mM oleic acid with 11 mM glucose, 3 control and 4 diabetic donors, p<0.001): significant effect

C/C=C(/C)C(=O)O[C@H]1C(C)=C2[C@H]([C@@H]1OC(=O)CCCCCCC)[C@@](C)(OC(C)=O)C[C@H](OC(=O)CCC)[C@@]1(O)[C@H]2OC(=O)[C@@]1(C)O [thapsigargin, reference compound]
effect of thapsigargin on cytosolic Ca2+ ([2]; untreated and TNF-α treated cells): transient rise of cytosolic Ca^2+

TNF-α
effect of TNF-α on thapsigargin-induced Ca2+ transients ([2]; TNF-α treated versus untreated fibroblasts): greater in TNF-α treated fibroblasts than in untreated cells | treatment time at which maximum TNF-α induced increment in peak bradykinin response is achieved ([1]; 10 ng/ml TNF-α, 3 donors, not diminished by 48 hr): ≤ 24 h | TNF-α induced increment in bradykinin-induced Ca2+ mobilization, diabetic cells versus control cells ([1]; TNF-α 10 ng/ml for 24 hours, 7 control and 10 diabetic donors): 3 fold | effect on steady state Ca2+ following the bradykinin response ([1]; TNF-α 10 ng/ml for 24 hours, control and diabetic donors, ANOVA p<0.001): significant elevations of steady state Ca^2+ | effect on bradykinin-induced Ca2+ mobilization ([1]; TNF-α 10 ng/ml, 24 hour incubation, 20 nM bradykinin, control and diabetic donors): potentiated bradykinin-induced Ca^2+ mobilization | treatment time from which increases in bradykinin-induced Ca2+ mobilization were observed ([1]; TNF-α 10 ng/ml, bradykinin 1 nM to 1 μM, controls and diabetics): ≥ 1 h | effect on basal intracellular Ca2+ ([1]; TNF-α 10 ng/ml, p<0.05): significant increase in basal Ca^2+ in diabetic but not control cells | effect on peak bradykinin response in control donors, diabetic milieu experiment ([1]; control donors, 48 hours FFA medium, TNF-α final 24 hours, data not shown): little or no effect | effect on calreticulin expression (calreticulin): no change in calreticulin expression
